The record followed here is ChEMBL document CHEMBL1129167, “Examination of the role of the duocarmycin SA methoxy substituents: Identification of the minimum, fully potent DNA binding subunit” (Bioorg Med Chem Lett, 1996).

In general, IC50 refers to the concentration needed to halve the response being measured. Low values mean inhibition by little substance, high ones a need for much substance.

The subject of the first test is L1210. Kind of test: In vitro cytotoxicity in L1210 cell lines. In kind it is functional, cell-based, Mus musculus.
Regarding `COC(=O)c1cc2c([nH]1)C(=O)C=C1N(C(=O)c3cc4cc(OC)c(OC)c(OC)c4[nH]3)C[C@H]3C[C@]123` [DUOCARMYCIN], inhibition was half-maximal at 0.1 nM (IC50).

Molecule `COC(=O)c1cc2c([nH]1)C(=O)C=C1N(C(=O)c3cc4ccc(OC)cc4[nH]3)C[C@H]3C[C@]123` (stereo in doubt; (+)-6) [listing 1 of 2 here] registered an IC50 of 0.025 nM.

In turn, `COC(=O)c1cc2c([nH]1)C(=O)C=C1N(C(=O)c3cc4cccc(OC)c4[nH]3)C[C@H]3C[C@]123` (stereo in doubt; (-)-7) registered an IC50 of 1.8 nM.

The molecule `COC(=O)c1cc2c([nH]1)C(=O)C=C1N(C(=O)c3cc4cc(OC)ccc4[nH]3)C[C@H]3C[C@]123` (stereo in doubt; (+)-5) [listing 1 of 2 here] displayed an IC50 of 0.01 nM.

In turn, `COC(=O)c1cc2c([nH]1)C(=O)C=C1N(C(=O)c3cc4ccc(OC)cc4[nH]3)C[C@H]3C[C@]123` (stereo in doubt; (-)-6) displayed an IC50 of 1.3 nM.

For the molecule `COC(=O)c1cc2c([nH]1)C(=O)C=C1N(C(=O)c3cc4cc(OC)ccc4[nH]3)C[C@H]3C[C@]123` (stereo in doubt; (-)-5), half-maximal inhibition (IC50) was put at 0.3 nM.

`COC(=O)c1cc2c([nH]1)C(=O)C=C1N(C(=O)c3cc4ccccc4[nH]3)C[C@H]3C[C@]123` (stereo in doubt; (-)-4) showed an IC50 of 1.7 nM.

`COC(=O)c1cc2c([nH]1)C(=O)C=C1N(C(=O)c3cc4cccc(OC)c4[nH]3)C[C@H]3C[C@]123` (stereo in doubt; (+)-7) [listing 1 of 2 here] showed an IC50 of 0.06 nM.

As for `COC(=O)c1cc2c([nH]1)C(=O)C=C1N(C(=O)c3cc4ccccc4[nH]3)C[C@H]3C[C@]123` (stereo in doubt; (+)-4) [listing 1 of 2 here], the IC50 came to 0.065 nM.

Test system in a further test: not listed separately
Kind of test: Compound was evaluated for relative DNA alkylation efficiency. The test is classed as functional.
Consider `COC(=O)c1cc2c([nH]1)C(=O)C=C1N(C(=O)c3cc4cc(OC)ccc4[nH]3)C[C@H]3C[C@]123` (stereo in doubt; (+)-5) [listing 2 of 2 here], for which the krel was found to be 1.

In the case of `COC(=O)c1cc2c([nH]1)C(=O)C=C1N(C(=O)c3cc4cccc(OC)c4[nH]3)C[C@H]3C[C@]123` (stereo in doubt; (+)-7) [listing 2 of 2 here], the krel was 0.1.

In the case of `COC(=O)c1cc2c([nH]1)C(=O)C=C1N(C(=O)c3cc4cc(OC)c(OC)c(OC)c4[nH]3)C[C@H]3C[C@]123` [DUOCARMYCIN], the krel stood at 1.

Consider `COC(=O)c1cc2c([nH]1)C(=O)C=C1N(C(=O)c3cc4ccc(OC)cc4[nH]3)C[C@H]3C[C@]123` (stereo in doubt; (+)-6) [listing 2 of 2 here], for which the krel was 0.2.

`COC(=O)c1cc2c([nH]1)C(=O)C=C1N(C(=O)c3cc4ccccc4[nH]3)C[C@H]3C[C@]123` (stereo in doubt; (+)-4) [listing 2 of 2 here] returned a krel of 0.05.
